{
  "source": "ChEMBL document CHEMBL1133130",
  "about": "“Synthesis and evaluation of geldanamycin-testosterone hybrids” (Bioorg Med Chem Lett, 2000)",
  "type_in_all_cases": "functional, cell-based",
  "key": {"LNCaP [1]": {"tested_on": "LNCaP", "assay": "Compound was evaluated for cytotoxicity against LNCaP prostate cancer cells", "details": "Homo sapiens"}, "COLO 205": {"tested_on": "COLO 205", "assay": "Compound was evaluated for cytotoxicity against COLO 205 colon cancer cells ([…] cells)", "details": "Homo sapiens"}, "LNCaP [2]": {"tested_on": "LNCaP", "assay": "Compound was evaluated for cytotoxicity against LNCaP prostate cancer cells (AR dependent cells)", "details": "Homo sapiens"}, "[3]": {"assay": "Compound was evaluated for cytotoxicity against LAPC4 prostate cancer cells (AR dependent cells)", "details": "Homo sapiens"}, "MCF7": {"tested_on": "MCF7", "assay": "Compound was evaluated for cytotoxicity against MCF-7 breast cancer cells ([…] cells)", "details": "Homo sapiens"}, "[4]": {"assay": "Compound was evaluated for cytotoxicity against MDA-468 breast cancer cells ([…] cells)", "details": "Homo sapiens, MDA-MB-468"}, "PC-3": {"tested_on": "PC-3", "assay": "Compound was evaluated for cytotoxicity against PC3 prostate cancer cells ([…] cells)", "details": "Homo sapiens"}},
  "data": [
    {"compound": "CO[C@H]1/C=C\\C=C(/C)C(=O)NC2=CC(=O)C(NCCCCCCC#C[C@]3(O)CC[C@@]4(C)C5CCC6=CC(=O)CC[C@]6(C)[C@@]5(C)CC[C@@]43C)=C(C[C@H](C)C[C@H](OC)[C@@H](O)[C@H](C)/C=C(\\C)C[C@@H]1OC(N)=O)C2=O", "note": "(stereo partly specified)", "values": [
      {"measurement": "IC50", "setting": "LNCaP [1]", "result": "> 1000", "unit": "nM"}
    ]},
    {"compound": "CO[C@H]1/C=C\\C=C(/C)C(=O)NC2=CC(=O)C(NCCCC#C[C@]3(O)CC[C@@]4(C)C5CCC6=CC(=O)CC[C@]6(C)[C@@]5(C)CC[C@@]43C)=C(C[C@H](C)C[C@H](OC)[C@@H](O)[C@H](C)/C=C(\\C)C[C@@H]1OC(N)=O)C2=O", "note": "(stereo partly specified)", "values": [
      {"measurement": "IC50", "setting": "LNCaP [1]", "result": 200, "unit": "nM"}
    ]},
    {"compound": "CO[C@H]1/C=C\\C=C(/C)C(=O)NC2=CC(=O)C(NCCCC/C=C/[C@]3(O)CC[C@@]4(C)C5CC=C6CC7(CC[C@]6(C)[C@@]5(C)CC[C@@]43C)OCCO7)=C(C[C@H](C)C[C@H](OC)[C@@H](O)[C@H](C)/C=C(\\C)C[C@@H]1OC(N)=O)C2=O", "note": "(stereo partly specified)", "values": [
      {"measurement": "IC50", "setting": "LNCaP [1]", "result": "> 1000", "unit": "nM"}
    ]},
    {"compound": "CO[C@H]1/C=C\\C=C(/C)C(=O)NC2=CC(=O)C(NCCCCC#C[C@]3(O)CC[C@@]4(C)C5CCC6=CC(=O)CC[C@]6(C)[C@@]5(C)CC[C@@]43C)=C(C[C@H](C)C[C@H](OC)[C@@H](O)[C@H](C)/C=C(\\C)C[C@@H]1OC(N)=O)C2=O", "note": "(stereo partly specified)", "values": [
      {"measurement": "IC50", "setting": "COLO 205", "result": 200, "unit": "nM"},
      {"measurement": "IC50", "setting": "LNCaP [2]", "result": 100, "unit": "nM"},
      {"measurement": "IC50", "setting": "[3]", "result": 40, "unit": "nM"},
      {"measurement": "IC50", "setting": "MCF7", "result": 300, "unit": "nM"},
      {"measurement": "IC50", "setting": "[4]", "result": 240, "unit": "nM"},
      {"measurement": "IC50", "setting": "LNCaP [1]", "result": 100, "unit": "nM"},
      {"measurement": "IC50", "setting": "PC-3", "result": 300, "unit": "nM"}
    ]},
    {"compound": "COC1=C2C[C@H](C)C[C@H](OC)[C@@H](O)[C@H](C)/C=C(\\C)C[C@H](OC(N)=O)[C@@H](OC)/C=C\\C=C(/C)C(=O)NC(=CC1=O)C2=O", "values": [
      {"measurement": "IC50", "setting": "COLO 205", "result": 20, "unit": "nM"},
      {"measurement": "IC50", "setting": "LNCaP [2]", "result": 40, "unit": "nM"},
      {"measurement": "IC50", "setting": "[3]", "result": 25, "unit": "nM"},
      {"measurement": "IC50", "setting": "MCF7", "result": 30, "unit": "nM"},
      {"measurement": "IC50", "setting": "[4]", "result": 20, "unit": "nM"},
      {"measurement": "IC50", "setting": "LNCaP [1]", "result": 40, "unit": "nM"},
      {"measurement": "IC50", "setting": "PC-3", "result": 30, "unit": "nM"}
    ]},
    {"compound": "CO[C@H]1/C=C\\C=C(/C)C(=O)NC2=CC(=O)C(NCCC#C[C@]3(O)CC[C@@]4(C)C5CCC6=CC(=O)CC[C@]6(C)[C@@]5(C)CC[C@@]43C)=C(C[C@H](C)C[C@H](OC)[C@@H](O)[C@H](C)/C=C(\\C)C[C@@H]1OC(N)=O)C2=O", "note": "(stereo partly specified)", "values": [
      {"measurement": "IC50", "setting": "LNCaP [1]", "result": "> 1000", "unit": "nM"}
    ]},
    {"compound": "CO[C@H]1/C=C\\C=C(/C)C(=O)NC2=CC(=O)C(NCCCC/C=C\\[C@]3(O)CC[C@@]4(C)C5CC=C6CC7(CC[C@]6(C)[C@@]5(C)CC[C@@]43C)OCCO7)=C(C[C@H](C)C[C@H](OC)[C@@H](O)[C@H](C)/C=C(\\C)C[C@@H]1OC(N)=O)C2=O", "note": "(stereo partly specified)", "values": [
      {"measurement": "IC50", "setting": "LNCaP [1]", "result": "> 1000", "unit": "nM"}
    ]},
    {"compound": "CO[C@H]1/C=C\\C=C(/C)C(=O)NC2=CC(=O)C(NCCCCCC#C[C@]3(O)CC[C@@]4(C)C5CCC6=CC(=O)CC[C@]6(C)[C@@]5(C)CC[C@@]43C)=C(C[C@H](C)C[C@H](OC)[C@@H](O)[C@H](C)/C=C(\\C)C[C@@H]1OC(N)=O)C2=O", "note": "(stereo partly specified)", "values": [
      {"measurement": "IC50", "setting": "LNCaP [1]", "result": "> 1000", "unit": "nM"}
    ]},
    {"compound": "CO[C@H]1/C=C\\C=C(/C)C(=O)NC2=CC(=O)C(NCCCCCC[C@]3(O)CC[C@@]4(C)C5CC=C6CC7(CC[C@]6(C)[C@@]5(C)CC[C@]34C)OCCO7)=C(C[C@H](C)C[C@H](OC)[C@@H](O)[C@H](C)/C=C(\\C)C[C@@H]1OC(N)=O)C2=O", "note": "(stereo partly specified)", "values": [
      {"measurement": "IC50", "setting": "LNCaP [1]", "result": "> 1000", "unit": "nM"}
    ]}
  ]
}
